Test results as given in ChEMBL document CHEMBL1201862, “PubChem BioAssay data set” (2004).
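Grown in 96-well plates, cells were treated for 48 hours with each compound at five concentrations. Insufficient inhibition: endpoint recorded as highest concentration tested. GI50: concentration for 50% inhibition of growth.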 The source made the active and inactive calls. No stated cut-off is given here; in the data, active = GI50 up to about 1.1 µM and inactive = higher.

How the values were obtained:
Assay in all cases: inhibition of tumour cell growth, NCI panel, 48 h
MDA-N = tested on: MDA-N
SK-MEL-28 = tested on: SK-MEL-28
A549 = tested on: A549
HOP-62 = tested on: HOP-62
HT-29 = tested on: HT-29
HCT-116 = tested on: HCT-116
NCI-H23 = tested on: NCI-H23
IGROV-1 = tested on: IGROV-1
SNB-19 = tested on: SNB-19
SNB-75 = tested on: SNB-75
NCI/ADR-RES = tested on: NCI/ADR-RES
U-251 = tested on: U-251
TK-10 = tested on: TK-10
CCRF-CEM = tested on: CCRF-CEM
NCI-H522 = tested on: NCI-H522
LOX IMVI = tested on: LOX IMVI
SN12C = tested on: SN12C
OVCAR-8 = tested on: OVCAR-8
BT-549 = tested on: BT-549
A498 = tested on: A498

SMILES	GI50 (MDA-N)	GI50 (SK-MEL-28)	GI50 (A549)	GI50 (HOP-62)	GI50 (HT-29)	GI50 (HCT-116)	GI50 (NCI-H23)	GI50 (IGROV-1)	GI50 (SNB-19)	GI50 (SNB-75)	GI50 (NCI/ADR-RES)	GI50 (U-251)	GI50 (TK-10)	GI50 (CCRF-CEM)	GI50 (NCI-H522)	GI50 (LOX IMVI)	GI50 (SN12C)	GI50 (OVCAR-8)	GI50 (BT-549)	GI50 (A498)
CN(C)CCNc1nc(-c2ccc3ccccc3c2)nc2[nH]cnc12	10.7 µM (inactive)	13.6 µM (inactive)	12.5 µM (inactive)	10.9 µM (inactive)	3.84 µM (inactive)	8.83 µM (inactive)	11.7 µM (inactive)	2.31 µM (inactive)	14 µM (inactive)	1.1 µM (active)	7.33 µM (inactive)	13.1 µM (inactive)	6.38 µM (inactive)	9.27 µM (inactive)	1.12 µM (active)	4.55 µM (inactive)	11.1 µM (inactive)	10.8 µM (inactive)	11.2 µM (inactive)	
O=S(=O)(c1cc(Cl)ccc1Cl)N1CCN(S(=O)(=O)c2cc(Cl)ccc2Cl)CC1	> 100 µM (inactive)	> 100 µM (inactive)	> 100 µM (inactive)	> 100 µM (inactive)	> 100 µM (inactive)	> 100 µM (inactive)	4.86 µM (inactive)	> 100 µM (inactive)	> 100 µM (inactive)	> 100 µM (inactive)	> 100 µM (inactive)	> 100 µM (inactive)	> 100 µM (inactive)		> 100 µM (inactive)		> 100 µM (inactive)	> 100 µM (inactive)	> 100 µM (inactive)	> 100 µM (inactive)
CCOC(=O)C(Cc1ccccc1)(Cc1ccc(O)cn1)NC(=O)c1ccccc1 (stereo not given)	6.27 µM (inactive)	36.5 µM (inactive)	27.2 µM (inactive)	32.2 µM (inactive)	26.5 µM (inactive)	24.7 µM (inactive)	32.8 µM (inactive)	22.6 µM (inactive)	32 µM (inactive)	21.6 µM (inactive)	26.4 µM (inactive)	21.7 µM (inactive)	32.1 µM (inactive)	7.03 µM (inactive)	15.6 µM (inactive)	19.8 µM (inactive)		31.6 µM (inactive)	30.1 µM (inactive)	
CO[C@]12C#CC=CC#C[C@@H](O)[C@]3(CCC1)O[C@@]23c1cccc(O)c1	> 100 µM (inactive)	> 100 µM (inactive)	> 100 µM (inactive)	79.3 µM (inactive)		> 100 µM (inactive)	> 100 µM (inactive)		51.3 µM (inactive)	> 100 µM (inactive)	> 100 µM (inactive)	> 100 µM (inactive)	> 100 µM (inactive)			> 100 µM (inactive)	> 100 µM (inactive)	> 100 µM (inactive)	> 100 µM (inactive)	> 100 µM (inactive)
CCN(CC)Cc1cc(Nc2ccnc3ccc4c(nnn4C)c23)ccc1O	11.5 µM (inactive)	3.98 µM (inactive)	12.2 µM (inactive)	4.92 µM (inactive)	5.56 µM (inactive)	4.93 µM (inactive)	11.5 µM (inactive)	15.4 µM (inactive)	5.55 µM (inactive)	5.89 µM (inactive)	19 µM (inactive)		21.5 µM (inactive)	5.06 µM (inactive)	16.2 µM (inactive)	11.9 µM (inactive)	6.1 µM (inactive)	16.1 µM (inactive)	18.8 µM (inactive)	
COc1ccc2c(C(=O)c3c(C)n(CCN4CCOCC4)c4ccccc34)cccc2c1	17.9 µM (inactive)	> 100 µM (inactive)	24.5 µM (inactive)	71.9 µM (inactive)	21 µM (inactive)	25.5 µM (inactive)	18.8 µM (inactive)	36.6 µM (inactive)	46.1 µM (inactive)		16.9 µM (inactive)	15.3 µM (inactive)	58.5 µM (inactive)	2.77 µM (inactive)	18.7 µM (inactive)	18.9 µM (inactive)	71 µM (inactive)	18.8 µM (inactive)	20.2 µM (inactive)	81.8 µM (inactive)
Nc1ccccc1C(=O)CCc1c[nH]c2ccccc12	> 100 µM (inactive)	> 100 µM (inactive)	> 100 µM (inactive)	32.2 µM (inactive)	> 100 µM (inactive)	> 100 µM (inactive)		35.7 µM (inactive)	92.3 µM (inactive)	29.4 µM (inactive)	> 100 µM (inactive)	27.4 µM (inactive)	> 100 µM (inactive)		> 100 µM (inactive)	47.5 µM (inactive)	> 100 µM (inactive)	> 100 µM (inactive)	19.3 µM (inactive)	> 100 µM (inactive)
NCCO/C=C/C(N)C(=O)O (stereo not given) [AMINOETHOXYVINYLGLYCINE]	> 100 µM (inactive)	> 100 µM (inactive)	> 100 µM (inactive)	> 100 µM (inactive)	> 100 µM (inactive)	> 100 µM (inactive)	> 100 µM (inactive)	> 100 µM (inactive)	> 100 µM (inactive)	> 100 µM (inactive)	> 100 µM (inactive)	> 100 µM (inactive)	> 100 µM (inactive)	> 100 µM (inactive)	10.1 µM (inactive)	> 100 µM (inactive)	> 100 µM (inactive)	> 100 µM (inactive)	> 100 µM (inactive)	
